The source of these data is PMC3565387 (Bioorganic & medicinal chemistry, 2012).

The subject of one experiment is human neutrophils. As to the kind of experiment: Ca2+ mobilization in human neutrophils. Format: cell-based. The settings on record: % of response induced by 5 nM fMLF. On the technique in general: A change in cytosolic calcium serves as a functional read-out for many receptors and channels.
The subject of a further experiment is FPR2/ALX. The settings on record: read-out: EC50 at FPR2/ALX; endogenous ligand; cited from earlier work.
Experiment [1] has as its target T1, FPR1 (Homo sapiens, UniProt P21462).
T1 sequence (P21462 1-350): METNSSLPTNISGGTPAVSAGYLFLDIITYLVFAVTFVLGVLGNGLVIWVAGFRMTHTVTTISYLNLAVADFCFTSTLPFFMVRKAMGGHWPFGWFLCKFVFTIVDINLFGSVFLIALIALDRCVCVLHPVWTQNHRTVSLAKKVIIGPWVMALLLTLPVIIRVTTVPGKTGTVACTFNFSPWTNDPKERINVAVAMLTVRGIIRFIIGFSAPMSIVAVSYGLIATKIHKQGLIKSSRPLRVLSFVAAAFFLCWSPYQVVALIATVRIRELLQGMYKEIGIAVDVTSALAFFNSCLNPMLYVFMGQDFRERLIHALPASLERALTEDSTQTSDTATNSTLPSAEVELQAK
The experiment can be described thus: Ca2+ mobilization in HL-60 cells transfected with FPR1. Format: cell-based. The settings on record: HL-60-FPR1 cells; % of response induced by 5 nM fMLF.

Experiment [2] has as its target T2, FPR2 (Homo sapiens, UniProt P25090).
T2 sequence (P25090 1-351): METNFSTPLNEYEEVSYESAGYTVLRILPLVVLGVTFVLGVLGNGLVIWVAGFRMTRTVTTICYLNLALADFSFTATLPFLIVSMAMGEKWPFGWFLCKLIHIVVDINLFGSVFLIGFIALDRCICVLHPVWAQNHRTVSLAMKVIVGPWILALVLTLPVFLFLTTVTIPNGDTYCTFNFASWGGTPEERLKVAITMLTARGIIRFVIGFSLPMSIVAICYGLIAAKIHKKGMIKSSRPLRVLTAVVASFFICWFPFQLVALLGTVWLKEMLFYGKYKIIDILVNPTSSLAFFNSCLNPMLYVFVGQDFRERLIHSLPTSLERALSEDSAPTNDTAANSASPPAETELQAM
The experiment can be described thus: Ca2+ mobilization in HL-60 cells transfected with FPR2. Format: cell-based. Conditions: HL-60-FPR2 cells; % of response induced by 5 nM WKYMVm.

Experiment [3] addresses T1, FPR1. The experiment can be described thus: PathHunter β-arrestin recruitment in CHO-K1 FPR1 cells. Format: cell-based. The settings on record: % of response induced by 5 nM WKYMVm. (Recruitment of arrestin is a read-out of receptor activation apart from second messengers.)
Experiment [4] addresses T2, FPR2. As to the kind of experiment: PathHunter β-arrestin recruitment in CHO-K1 FPR2 cells. Format: cell-based.

As for `COc1cccc(Cc2cc(C)nn([C@H](C)C(=O)Nc3ccc(Br)cc3)c2=O)c1` [R-(−)-5a, R-(−)-N-(4-Bromophenyl)-2-[5-(3-methoxybenzyl)-3-methyl-6-oxopyridazin-1(6H)-yl]propanamide], in the experiment with human neutrophils, the “Ca2+ mobilization hPMN efficacy” value is recorded as 110%.
On the same count and under the same terms, the value for `COc1cccc(Cc2cc(C)nn([C@@H](C)C(=O)Nc3ccc(Br)cc3)c2=O)c1` [S-(+)-5a, S-(+)-N-(4-Bromophenyl)-2-[5-(3-methoxybenzyl)-3-methyl-6-oxopyridazin-1(6H)-yl]propanamide] was 65%.
For `CCCCC[C@H](O)/C=C/C=C\C=C\C=C\[C@@H](O)[C@@H](O)CCCC(=O)O` [LXA4, lipoxin A4], the EC50 with FPR2/ALX was 1 nM.
As to `CCC[C@H](C(=O)Nc1ccc(Br)cc1)n1nc(C)cc(Cc2cccc(OC)c2)c1=O` [R-(−)-5c, R-(−)-N-(4-Bromophenyl)-2-[5-(3-methoxybenzyl)-3-methyl-6-oxopyridazin-1(6H)-yl]pentanamide], the “Ca2+ mobilization hPMN efficacy” value in the experiment with human neutrophils was 145%. In addition, at FPR1 [1], the “Ca2+ mobilization FPR1 efficacy” value is given as 85%. Besides, the “Ca2+ mobilization FPR2 efficacy” value on FPR2 [2] was determined as 120%. At FPR1 [3], the “β-Arrestin recruitment FPR1 efficacy” value was 120%. Further, the “β-Arrestin recruitment FPR2 efficacy” value on FPR2 [4] (CHO-K1 FPR2 cells, % of response induced by 5 nM WKYMVm) came out at 100%.
On to `CSCC[C@H](NC=O)C(=O)N[C@@H](CC(C)C)C(=O)N[C@@H](Cc1ccccc1)C(=O)O` [fMLF, N-formyl-methionine-leucine-phenylalanine, reference compound], for which the “β-Arrestin recruitment FPR2 (in words)” value at FPR2 [4] (FPR2 CHO-K1 cells) is “no recruitment”.
Turning to `CCC(C(=O)Nc1ccc(Br)cc1)n1nc(C)cc(Cc2cccc(OC)c2)c1=O` (racemic) [(±)-5b, (±)-N-(4-Bromophenyl)-2-[5-(3-methoxybenzyl)-3-methyl-6-oxopyridazin-1(6H)-yl]butanamide], the “Ca2+ mobilization hPMN efficacy” value in the experiment on human neutrophils is 145%. At FPR1 [1], the “Ca2+ mobilization FPR1 efficacy” value is given as 95%. The “Ca2+ mobilization FPR2 efficacy” value on FPR2 [2] is reported as 95%.
